Measured values: ChEMBL document CHEMBL1201862, “PubChem BioAssay data set” (2004)
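Growth conditions: 96-well plates. Treatment: test compound, 48 hours, 5 concentrations. Analysis: linear interpolation between bracketing concentrations; unreached endpoints set to highest concentration. GI50 = concentration required for 50% inhibition of growth.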 Activity calls are given as the source filed them. Rule as the data show it: active = GI50 up to about 1.1 µM and inactive = higher.

What was measured:
Assay in all cases: NCI anticancer screen, dose series, 48 h
[1] = tested on: CCRF-CEM
[2] = tested on: MDA-MB-231
[3] = tested on: SK-MEL-28
[4] = tested on: NCI-H23
[5] = tested on: T47D
[6] = tested on: SF-268
[7] = tested on: HCT-15
[8] = tested on: PC-3
[9] = tested on: OVCAR-4
[10] = tested on: MOLT-4
[11] = tested on: IGROV-1
[12] = tested on: EKVX
[13] = tested on: HL-60
[14] = tested on: HCC 2998
[15] = tested on: M14
[16] = tested on: SK-OV-3
[17] = tested on: BT-549
[18] = tested on: SN12C
[19] = tested on: UO-31
[20] = tested on: HCT-116
[21] = tested on: ACHN
[22] = tested on: RXF 393
[23] = tested on: NCI-H226
[24] = tested on: K562
[25] = tested on: SK-MEL-5
[26] = tested on: TK-10
[27] = tested on: NCI/ADR-RES
[28] = tested on: MDA-N
[29] = tested on: HOP-62
[30] = tested on: OVCAR-8
[31] = tested on: SR
[32] = tested on: HT-29
[33] = tested on: SNB-19
[34] = tested on: SF-295
[35] = tested on: UACC-62
[36] = tested on: Hs-578T
[37] = tested on: KM12
[38] = tested on: 786-0
[39] = tested on: NCI-H460
[40] = tested on: SNB-75
[41] = tested on: SW-620
[42] = tested on: NCI-H522
[43] = tested on: DU-145
[44] = tested on: MDA-MB-435
[45] = tested on: UACC-257
[46] = tested on: A549
[47] = tested on: SF-539
[48] = tested on: RPMI-8226
[49] = tested on: U-251
[50] = tested on: MCF7
[51] = tested on: OVCAR-3
[52] = tested on: COLO 205
[53] = tested on: SK-MEL-2
[54] = tested on: A498
[55] = tested on: LOX IMVI
[56] = tested on: OVCAR-5
[57] = tested on: Malme-3M
[58] = tested on: CAKI-1
[59] = tested on: HOP-92

Compound: CCC1CCC2c3c([nH]c4ccccc34)C3C(=O)N(c4ccc(OC)cc4)C(=O)C3C2C1 (stereo unspecified)
- GI50 [1]: 11.1 µM (inactive)
- GI50 [2]: 49.7 µM (inactive)
- GI50 [3]: 63.8 µM (inactive)
- GI50 [4]: > 100 µM (inactive)
- GI50 [5]: 16.8 µM (inactive)
- GI50 [6]: 52.5 µM (inactive)
- GI50 [7]: 35.1 µM
- GI50 [8]: > 100 µM (inactive)
- GI50 [9]: 14.9 µM (inactive)
- GI50 [10]: 16.7 µM (inactive)
- GI50 [11]: 64.1 µM (inactive)
- GI50 [12]: 48.3 µM (inactive)
- GI50 [13]: 28.2 µM (inactive)
- GI50 [14]: 91.2 µM (inactive)
- GI50 [15]: 63 µM (inactive)
- GI50 [16]: 36.4 µM (inactive)
- GI50 [17]: > 100 µM (inactive)
- GI50 [18]: 68.9 µM (inactive)
- GI50 [19]: > 100 µM (inactive)
- GI50 [20]: 20 µM (inactive)
- GI50 [21]: 39.8 µM (inactive)
- GI50 [22]: > 100 µM (inactive)
- GI50 [23]: > 100 µM (inactive)
- GI50 [24]: 22 µM (inactive)
- GI50 [25]: > 100 µM (inactive)
- GI50 [26]: 28.2 µM (inactive)
- GI50 [27]: 39.6 µM (inactive)
- GI50 [28]: 55.7 µM (inactive)
- GI50 [29]: 54.6 µM (inactive)
- GI50 [30]: 27.1 µM (inactive)
- GI50 [31]: 16.1 µM (inactive)
- GI50 [32]: 42.3 µM (inactive)
- GI50 [33]: 28.3 µM (inactive)
- GI50 [34]: 26.8 µM (inactive)
- GI50 [35]: 61.8 µM (inactive)
- GI50 [36]: 22.2 µM (inactive)
- GI50 [37]: 93.5 µM (inactive)
- GI50 [38]: > 100 µM (inactive)
- GI50 [39]: 30.4 µM (inactive)
- GI50 [40]: 19.5 µM (inactive)
- GI50 [41]: 17.7 µM (inactive)
- GI50 [42]: 77.6 µM (inactive)
- GI50 [43]: > 100 µM (inactive)
- GI50 [44]: 55.5 µM (inactive)
- GI50 [45]: > 100 µM (inactive)
- GI50 [46]: 22.2 µM (inactive)
- GI50 [47]: 34 µM (inactive)
- GI50 [48]: 55 µM (inactive)
- GI50 [49]: 18.7 µM (inactive)
- GI50 [50]: 36.6 µM (inactive)
- GI50 [51]: 22.3 µM (inactive)
- GI50 [52]: 74.1 µM (inactive)

Compound: CN(C)CCCN1C(=O)N(CCCN(C)C)c2c3cc(O)ccc3nc3c([N+](=O)[O-])ccc1c23
- GI50 [2]: 11.6 µM (inactive)
- GI50 [3]: 43.3 µM (inactive)
- GI50 [53]: 15.6 µM (inactive)
- GI50 [4]: 13 µM (inactive)
- GI50 [5]: 30.3 µM (inactive)
- GI50 [6]: 10.3 µM (inactive)
- GI50 [54]: 22 µM (inactive)
- GI50 [7]: 13.1 µM
- GI50 [8]: 8.24 µM (inactive)
- GI50 [55]: 10.4 µM (inactive)
- GI50 [56]: 53.1 µM (inactive)
- GI50 [9]: 2.29 µM (inactive)
- GI50 [57]: 17.8 µM (inactive)
- GI50 [11]: 4.57 µM (inactive)
- GI50 [14]: 11.7 µM (inactive)
- GI50 [15]: 32.7 µM (inactive)
- GI50 [16]: 32.7 µM (inactive)
- GI50 [17]: 17.6 µM (inactive)
- GI50 [58]: 23.3 µM (inactive)
- GI50 [18]: 20 µM (inactive)
- GI50 [19]: 20.5 µM (inactive)
- GI50 [20]: 14.1 µM (inactive)
- GI50 [21]: 16.6 µM (inactive)
- GI50 [22]: 11.9 µM (inactive)
- GI50 [23]: 23.2 µM (inactive)
- GI50 [59]: 4.82 µM (inactive)
- GI50 [24]: 4.99 µM (inactive)
- GI50 [25]: 15.5 µM (inactive)
- GI50 [26]: 21.3 µM (inactive)
- GI50 [27]: 92.9 µM (inactive)
- GI50 [28]: 37.3 µM (inactive)
- GI50 [29]: 17.2 µM (inactive)
- GI50 [30]: 15.8 µM (inactive)
- GI50 [32]: 11.8 µM (inactive)
- GI50 [33]: 10.9 µM (inactive)
- GI50 [34]: 34.4 µM (inactive)
- GI50 [35]: 11.9 µM (inactive)
- GI50 [36]: 21.5 µM (inactive)
- GI50 [37]: 14.9 µM (inactive)
- GI50 [38]: 8.13 µM (inactive)
- GI50 [39]: 15.6 µM (inactive)
- GI50 [40]: 29.3 µM (inactive)
- GI50 [41]: 16 µM (inactive)
- GI50 [42]: 6.92 µM (inactive)
- GI50 [43]: 27.9 µM (inactive)
- GI50 [44]: 18 µM (inactive)
- GI50 [45]: 30.8 µM (inactive)
- GI50 [46]: 13.6 µM (inactive)
- GI50 [47]: 16 µM (inactive)
- GI50 [48]: 32.6 µM (inactive)
- GI50 [49]: 14.2 µM (inactive)
- GI50 [50]: 11.3 µM (inactive)
- GI50 [51]: 26.1 µM (inactive)
- GI50 [52]: 13.7 µM (inactive)
